Experimental data from BindingDB's records for doi:10.1111/cbdd.12280 (Universiti Kebangsaan Malaysia, Jalan Raja Muda Abdul Aziz, …, 2014).

Columns and labels:
Lipoxygenase = target: T1, Lipoxygenase (Glycine max, UniProt Q43440); assay: Lipo-oxygenase activity assay; conditions: pH 7; 25 °C
T1 sequence (Q43440 whole entry): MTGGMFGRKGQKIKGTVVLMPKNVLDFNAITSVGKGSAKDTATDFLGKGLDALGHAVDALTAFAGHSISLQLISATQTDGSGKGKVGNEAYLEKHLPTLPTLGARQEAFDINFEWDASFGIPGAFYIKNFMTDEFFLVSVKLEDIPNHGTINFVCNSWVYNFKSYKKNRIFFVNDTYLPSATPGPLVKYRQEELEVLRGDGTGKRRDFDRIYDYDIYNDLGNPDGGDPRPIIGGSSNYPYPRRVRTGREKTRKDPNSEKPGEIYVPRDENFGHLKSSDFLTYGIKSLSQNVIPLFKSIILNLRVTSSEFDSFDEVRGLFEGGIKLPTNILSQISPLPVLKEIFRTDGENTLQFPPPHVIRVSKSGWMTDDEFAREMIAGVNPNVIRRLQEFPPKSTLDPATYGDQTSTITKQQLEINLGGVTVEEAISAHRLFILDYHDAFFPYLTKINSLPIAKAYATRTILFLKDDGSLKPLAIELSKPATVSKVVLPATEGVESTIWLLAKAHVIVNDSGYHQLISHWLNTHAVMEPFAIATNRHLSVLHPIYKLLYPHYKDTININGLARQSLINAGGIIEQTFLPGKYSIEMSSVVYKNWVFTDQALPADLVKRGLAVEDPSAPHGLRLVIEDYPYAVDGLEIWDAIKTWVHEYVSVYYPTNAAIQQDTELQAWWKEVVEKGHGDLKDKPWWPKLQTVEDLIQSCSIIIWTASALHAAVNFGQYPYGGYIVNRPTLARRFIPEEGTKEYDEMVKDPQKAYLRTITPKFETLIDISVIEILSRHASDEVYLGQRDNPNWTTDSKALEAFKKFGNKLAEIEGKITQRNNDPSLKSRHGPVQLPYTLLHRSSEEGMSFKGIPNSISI
Procedure: The assay was progressed in 96-well microliter plates containing substrate, soybean LOX enzyme, and respective test substance at room temperature in a 0.1 M Tris-HCl buffer solution at pH 7. The reaction was initiated by the addition of substrate solution to all wells and incubated for 5 min, followed by the addition of 100 µL of chromogen solution to all wells to stop enzyme catalysis and incubated for 5 min. The absorbance was measured at 490 nm. Dimethyl sulphoxide served as a negative control.

[1] = target: T2, Prostaglandin G/H synthase 2 (Homo sapiens, UniProt P35354); assay: Cyclooxygenase activity assay; conditions: pH 8; 37 °C
T2 sequence (P35354 whole entry): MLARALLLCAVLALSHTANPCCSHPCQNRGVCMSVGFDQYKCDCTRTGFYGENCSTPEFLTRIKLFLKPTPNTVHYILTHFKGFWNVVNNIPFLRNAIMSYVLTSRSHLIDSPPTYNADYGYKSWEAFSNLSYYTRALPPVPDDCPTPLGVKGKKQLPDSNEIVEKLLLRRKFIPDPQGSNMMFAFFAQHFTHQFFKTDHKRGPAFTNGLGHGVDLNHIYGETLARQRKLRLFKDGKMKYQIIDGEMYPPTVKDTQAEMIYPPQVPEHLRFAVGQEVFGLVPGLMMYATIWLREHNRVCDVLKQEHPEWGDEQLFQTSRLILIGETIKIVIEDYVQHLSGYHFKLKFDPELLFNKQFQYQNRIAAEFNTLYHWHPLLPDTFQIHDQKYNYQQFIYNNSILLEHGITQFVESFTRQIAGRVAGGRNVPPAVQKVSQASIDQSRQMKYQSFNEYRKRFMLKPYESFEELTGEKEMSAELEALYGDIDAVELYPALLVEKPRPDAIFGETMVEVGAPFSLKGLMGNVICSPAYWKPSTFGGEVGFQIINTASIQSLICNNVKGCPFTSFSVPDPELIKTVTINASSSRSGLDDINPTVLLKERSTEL
Procedure: (§1) Reaction mixture containing 100 mM Tris-HCl buffer (pH 8) and COX-1 (ovine) or COX-2 (human recombinant) was preincubated for 10 min in a water bath at 37 °C. The reaction was initiated by the addition of 10 µL arachidonic acid (final concentration 100 µM). After 2 min, the reaction was terminated by adding 1 M HCl. Test compounds were dissolved in DMSO and diluted to the desired concentration with potassium phosphate buffer of pH 7.4.

[2] = target: T3, Prostaglandin G/H synthase 1 (Ovis aries, UniProt P05979); assay: Cyclooxygenase activity assay; conditions: pH 8; 37 °C
T3 sequence (P05979 whole entry): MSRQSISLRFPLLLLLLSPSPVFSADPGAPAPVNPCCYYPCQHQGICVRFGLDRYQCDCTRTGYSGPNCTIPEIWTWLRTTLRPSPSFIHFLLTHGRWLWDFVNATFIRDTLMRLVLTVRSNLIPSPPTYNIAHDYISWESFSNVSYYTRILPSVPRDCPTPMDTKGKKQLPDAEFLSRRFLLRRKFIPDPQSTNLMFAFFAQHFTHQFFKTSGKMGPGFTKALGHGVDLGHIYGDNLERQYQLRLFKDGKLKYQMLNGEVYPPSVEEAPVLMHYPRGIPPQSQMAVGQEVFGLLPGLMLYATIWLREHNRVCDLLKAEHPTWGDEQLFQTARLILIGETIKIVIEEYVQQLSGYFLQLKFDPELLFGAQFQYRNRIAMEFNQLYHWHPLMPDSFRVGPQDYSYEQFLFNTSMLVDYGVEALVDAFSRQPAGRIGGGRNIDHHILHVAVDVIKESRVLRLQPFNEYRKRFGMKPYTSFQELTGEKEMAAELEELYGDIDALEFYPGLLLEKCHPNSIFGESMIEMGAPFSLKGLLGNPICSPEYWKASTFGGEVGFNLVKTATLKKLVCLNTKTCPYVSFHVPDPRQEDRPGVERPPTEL
Procedure: as §1

Phospholipase A2 group V = target: T4, Phospholipase A2 group V (Homo sapiens, UniProt P39877); assay: sPLA2-V activity assay; conditions: pH 8; 25 °C
T4 sequence (P39877 whole entry): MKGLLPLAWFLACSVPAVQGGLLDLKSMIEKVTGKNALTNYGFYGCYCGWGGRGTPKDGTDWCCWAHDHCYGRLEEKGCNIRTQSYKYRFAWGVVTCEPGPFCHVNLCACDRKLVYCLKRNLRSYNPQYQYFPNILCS
Procedure: Substrate 1,2-bis(heptanoylthio)-glycerophosphocholine and human recombinant PLA2-V were resuspended in assay buffer, and DTNB was dissolved in an aqueous solution of Tris-HCl (pH 8).

Prostaglandin E synthase = target: T5, Prostaglandin E synthase (Homo sapiens, UniProt O14684); assay: Microsomal prostaglandin E synthase-1 activity assay; conditions: pH 7; 20 °C
T5 sequence (O14684 whole entry): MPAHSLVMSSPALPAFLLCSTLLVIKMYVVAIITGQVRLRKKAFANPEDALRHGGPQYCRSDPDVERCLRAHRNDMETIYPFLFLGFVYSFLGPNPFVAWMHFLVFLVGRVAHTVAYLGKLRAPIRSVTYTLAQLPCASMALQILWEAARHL
Procedure: The assay buffer contained 100 mM KHPO4 (pH 7.0), 2 mM EDTA and 2.5 mM reduced GSH. 100 µL of reaction buffer containing human recombinant mPGES-1 was added to 96-well non-binding plate, followed by the addition of test samples to their respective wells. The reaction mixture was incubated for 30 min at 20 °C. […] The reaction was quenched by adding 20 µL of SnCl2 solution in 1 N HCl.

| SMILES | IC50 (Lipoxygenase) | IC50 [1] | IC50 [2] | IC50 (Phospholipase A2 group V) | IC50 (Prostaglandin E synthase) |
| --- | --- | --- | --- | --- | --- |
| CC(Cc1ccc(O)c(O)c1)C(C)Cc1ccc(O)c(O)c1 (stereo not drawn) [LOX inhibitor, N/A] | 9.23 µM |  |  |  |  |
| COc1cccc(/C=C/C(=O)/C=C/c2cccc(OC)c2OC)c1OC [(1Z,4Z)–1-5-Bis[2,3(dimethoxy)phenyl]-1,4-pentadien-3-one (9)] | 62.9 µM | 70.7 µM | 41.5 µM | 10.4 µM | 14.8 µM |
| CCN(CC)c1ccc(/C=C2\CCC/C(=C\c3ccc(N(CC)CC)cc3)C2=O)cc1 [2,6-Bis(4-diethyl-aminobenzylidene)cyclohexanone (5)] |  |  | 38.5 µM | 12.1 µM | 2.41 µM |
| CC(C=CC(=O)C=CC(C)c1ccccc1)c1ccccc1 (stereo not drawn) [(3E,6E)‐2,8‐diphenylnona‐3,6‐dien‐5‐one (10)] |  |  | 195 µM | 125 µM | 60.7 µM |
| COc1cc(C=CC(=O)CC(=O)C=Cc2ccc(O)c(OC)c2)ccc1O [(1E,6E)-1,7-bis(4-hydroxy-3-methoxyphenyl)hepta-1,6-diene-3,5-dione] | 57.8 µM |  | 31.3 µM |  | 4.88 µM |
| CC(C)(C)c1ccc(/C=C2\CCC/C(=C\c3ccc(C(C)(C)C)cc3)C2=O)cc1 [(2E,6E)‐2,6‐bis[(4‐tert‐ butylphenyl)methylidene]cyclohexan‐1‐one (2)] |  |  | 43.2 µM | 53.3 µM | 8.95 µM |
| CC(C=C1CCCC(=CC(C)c2ccccc2)C1=O)c1ccccc1 (stereo not drawn) [(2E,6E)‐2,6‐bis(2‐phenylpropylidene)cyclohexan‐1‐ one (4)] |  |  | 194 µM | 94.7 µM | 20.3 µM |
| CC(C=C1CCC(=CC(C)c2ccccc2)C1=O)c1ccccc1 (stereo not drawn) [(2E,5E)‐2,5‐bis(2‐phenylpropylidene)cyclopentan‐1‐ one (16)] |  |  | 320 µM |  | 7.48 µM |
| C[C@@H]1C[C@H]2[C@@H]3CCC4=CC(=O)C=C[C@]4(C)[C@@]3(F)[C@@H](O)C[C@]2(C)[C@@]1(O)C(=O)CO [dexamethasone (tetramethyl-rhodamine conjugated )] |  |  |  | 0.61 µM |  |
| CCN(CC)c1ccc(/C=C2\CC/C(=C\c3ccc(N(CC)CC)cc3)C2=O)cc1 [2,5-Bis(4-diethylaminobenzylidene)cyclopentanone (17)] | 56.8 µM |  | 32 µM | 10.2 µM | 5.48 µM |
| CCN(CC)c1ccc(/C=C/C(=O)/C=C/c2ccc(N(CC)CC)cc2)cc1 [(1E,4E)‐1,5‐bis[4‐(diethylamino)phenyl]penta‐1,4‐ dien‐3‐one (11)] | 95.1 µM | 94.9 µM | 37.7 µM | 16.1 µM | 6.98 µM |
| CC(C)(C)c1ccc(/C=C/C(=O)/C=C/c2ccc(C(C)(C)C)cc2)cc1 |  |  | 53.2 µM | 51.9 µM | 37 µM |
| CC(C)(C)c1ccc(/C=C2\CC/C(=C\c3ccc(C(C)(C)C)cc3)C2=O)cc1 [(2E,5E)‐2,5‐bis[(4‐tert‐butyl‐2‐ methylphenyl)methylidene]cyclopentan‐1‐one (14)] |  |  | 60 µM | 83.2 µM | 24.5 µM |
| COc1cccc(/C=C2\CC/C(=C\c3cccc(OC)c3OC)C2=O)c1OC [(2E,5E)‐2,5‐bis[(2,3‐ dimethoxyphenyl)methylidene]cyclopentan‐1‐one (15)] | 63.8 µM |  | 40.2 µM | 16.4 µM | 10.4 µM |
| COc1cccc(/C=C2\CCC/C(=C\c3cccc(OC)c3OC)C2=O)c1OC [2,6-Bis(2,3-dimethoxybenzylidene)cyclohexanone (3)] | 47.8 µM | 53.2 µM | 33.3 µM | 11 µM | 7.34 µM |
